Legend:
Rice (Oryza sativa) [1] = assay: Submerged Soil Treatment Test (Growth Stage Treatment), crop injury; assay type: in vivo; conditions: 30 g ai/a, growth stage treatment (barnyardgrass two-leaf stage), granule, transplanted rice, observed 30 days later
Experimental: (§1) 1/5000-are Wagner pots were filled with soil. Seeds or tubers of barnyardgrass, bulrush and Sagittaria pygmaea were seeded or planted under submerged condition. Two pairs of rice seedlings (2-3 leaf stage), which had been reared in advance, were transplanted to each pot and were allowed to grow in a green house. Each pair consisted of two rice seedlings. When the barnyardgrass grew to the two-leaf stage, each pot was treated with a granule which had been prepared by processing a predetermined amount of the test composition in accordance with a similar method to the method described in Formulation Example 9. The state of emergence of weeds and the state of injury of rice were observed 30 days later. In the table, the degrees of damages of the test plants and the degrees of injury of the rice are shown in a similar manner to Example 2.

[2] = test system: ALS (acetolactate synthase); assay: ALS (Acetolactate Synthase) Inhibition Test, pea enzyme; assay type: biochemical; conditions: enzymoreaction inhibition rate at 10 ppm (5 μg/0.5 ml)
Experimental: To determine the selectivity in enzyme level between crops and weeds, an ALS inhibition test was conducted using pea as a representative of broadleaf crops and barnyardgrass as a representative of gramineous weeds.
After seeds of pea and barnyardgrass were allowed to germinate at 25° C. for 8-14 days in a dark place, partially-purified suspensions (Suspensions A) of acetolactate syntase were separately obtained from seedlings in accordance with the method described in the literature, Plant Physiology, 75, 827-831. In a test tube, […], followed by the addition of 0.15 ml of a 20 mM K2 HPO4 solution and 0.25 ml of a reaction substrate medium which consisted of 40 mM of K2 HPO4, 40 mM of sodium pyruvate, 1 mM of TPP, 1 mM of MgCl2 and 20 μM of FAD so that 0.4 ml of a reaction solution (Solution B) was prepared. Added to 0.4 ml of Solution B was 0.1 ml of Suspension A. After the resultant mixture was shaken for 1 hour in a thermostat water bath controlled at 30° C., 50 μl of 6N sulfuric acid were added to terminate the reaction.
Next, the reaction-terminated liquid mixture was transferred into a thermostat water bath controlled at 60° C. and was heated for 15 minutes. Thereafter, 0.5 ml of a 0.5% creatine solution and 0.5 ml of a 5% alkaline α-naphthol solution were added, and the resultant mixture was maintained at 60° C. for 15 minutes. As a result, the test solution developed a pink-red color. After the above operation, the absorbance of the test solution at 525 nm was measured by a spectrophotometer (Absorbance 1 of Test Compound).
On the other hand, the absorbance (Absorbance 2 of Blank) of a solution obtained by subjecting a portion of Solution B, said portion being free of the test compound, to the above operation and the absorbance (Absorbance 3 of sulfuric acid terminated) of another solution obtained by subjecting another portion of Solution B, said portion containing 50 μl of 6N sulfuric acid as a test compound, were measured at the same time. […] [formula]

[3] = test system: Bulrush (Scirpus juncoides); assay: Submerged Soil Treatment Test (Growth Stage Treatment); assay type: in vivo; conditions: 30 g ai/a, growth stage treatment (barnyardgrass two-leaf stage), granule, observed 30 days later
Experimental: as §1

[4] = test system: Arrowhead sp. (Sagittaria pygmaea); assay: as above; assay type: in vivo; conditions: 30 g ai/a, growth stage treatment (barnyardgrass two-leaf stage), granule, observed 30 days later
Experimental: as §1

[5] = test system: Barnyardgrass (Echinochloa crus-galli); assay: as above; assay type: in vivo; conditions: 30 g ai/a, growth stage treatment (barnyardgrass two-leaf stage), granule, observed 30 days later
Experimental: as §1

[6] = test system: Foxtail (Setaria viridis); assay: Upland Soil Application Test; assay type: in vivo; conditions: 30 g ai/a; soil application before emergence, wettable powder; observed 30 days later
Experimental: (§2) Resin-made 1/2500-are pots were filled with the soil of an upland field. After they were fertilized, soybean, corn and cotton were seeded and 2-3 cm soil covering was applied. Seeds of redroot pigweed, morningglory (Ipomoea purpurea), common lambsquarters, barnyardgrass, green foxtail, large crabgrass, foxtail meadow and johnsongrass had been uniformly mixed with the soil. They were allowed to germinate in a green house. One day later (before emergence of weeds), a wettable powder prepared from a predetermined amount of each test compound in a similar manner to the method described in Formulation Example 1 was diluted with water and then sprayed evenly at an application rate equal to 10 l per are onto the surface of the soil by means of a pressure-operated ULV (ultra low volume) sprayer. Influence to the crops and weeds were observed 30 days later. The results are shown in Table 3, in which the degree of damages of each test plant and the degree of injury to each crop were determined by comparing the air-dried weights of the test plant and crop with those of the corresponding plant and crop in untreated pots and are shown in accordance with the following standard: […]

Johnsongrass = assay: Upland Soil Application Test; assay type: in vivo; conditions: 30 g ai/a; soil application before emergence, wettable powder; observed 30 days later
Experimental: as §2

[7] = test system: Crabgrass (Digitaria adsendens); assay: Upland Soil Application Test; assay type: in vivo; conditions: 30 g ai/a; soil application before emergence, wettable powder; observed 30 days later
Experimental: as §2

Redroot Pigweed = assay: Upland Soil Application Test; assay type: in vivo; conditions: 30 g ai/a; soil application before emergence, wettable powder; observed 30 days later
Experimental: as §2

Foxtail meadow = assay: Upland Soil Application Test; assay type: in vivo; conditions: 30 g ai/a; soil application before emergence, wettable powder; observed 30 days later
Experimental: as §2

Common lambsquarters = assay: Upland Soil Application Test; assay type: in vivo; conditions: 30 g ai/a; soil application before emergence, wettable powder; observed 30 days later
Experimental: as §2

[8] = test system: Barnyardgrass (Echinochloa crus-galli); assay: Upland Soil Application Test; assay type: in vivo; conditions: 30 g ai/a; soil application before emergence, wettable powder; observed 30 days later
Experimental: as §2

Rice (Oryza sativa) [9] = assay: Submerged Soil Treatment Test (Pre-Emergence Treatment), crop injury; assay type: in vivo; conditions: 30 g ai/a, granule, transplanted rice, observed 30 days later
Experimental: as §1, with “allowed to germinate in a” for “allowed to grow in a”, “rice seedlings. On day later (before emergence of weeds), each pot” for “rice seedlings. When the barnyardgrass grew to the two-leaf stage, each pot”, “injury of rice are” for “injury of the rice are”

Soybean (Glycine max) = assay: Upland Soil Application Test, crop injury; assay type: in vivo; conditions: 30 g ai/a; soil application before emergence, wettable powder; observed 30 days later
Experimental: as §2

[10] = test system: Cotton (Gossypium indicum); assay: Upland Soil Application Test, crop injury; assay type: in vivo; conditions: 30 g ai/a; soil application before emergence, wettable powder; observed 30 days later
Experimental: as §2

Corn (Zea maize) = assay: Upland Soil Application Test, crop injury; assay type: in vivo; conditions: 30 g ai/a; soil application before emergence, wettable powder; observed 30 days later
Experimental: as §2

Structure (SMILES)	Inhibition rate (%) Pea [2]	Crop injury Rice (Oryza sativa) (Rice (Oryza sativa) [1])	Herbicidal effects Bulrush (Scirpus juncoides) [3]	Herbicidal effects Arrowhead sp. (Sagittaria pygmaea) [4]	Herbicidal effects Barnyardgrass (Echinochloa crus-galli) [5]	Herbicidal effects Foxtail (Setaria viridis) [6]	Herbicidal effects Johnsongrass (Johnsongrass)	Herbicidal effects Crabgrass (Digitaria adsendens) [7]	Herbicidal effects Redroot Pigweed (Redroot Pigweed)	Herbicidal effects Foxtail meadow (Foxtail meadow)	Herbicidal effects Common lambquarters (Common lambsquarters)	Herbicidal effects Barnyardgrass (Echinochloa crus-galli) [8]	Crop injury Rice (Oryza sativa) (Rice (Oryza sativa) [9])	Crop injury Soybean (Glycine max) (Soybean (Glycine max))	Crop injury Cotton (Gossypium indicum) [10]	Crop injury Corn (Zea maize) (Corn (Zea maize))
CCCCOC(OCCCC)c1ncccc1Oc1nc(OC)cc(OC)n1 [Compound No. 4]	0%	0 (91-100 (No damages))	4 (6-10 (Severe damages))	4 (6-10 (Severe damages))	5 (0-5 (Death))	5 (0-5 (Death))	5 (0-5 (Death))	5 (0-5 (Death))	5 (0-5 (Death))	5 (0-5 (Death))	5 (0-5 (Death))	5 (0-5 (Death))	0 (91-100 (No damages))	0 (91-100 (No damages))	0 (91-100 (No damages))	0 (91-100 (No damages))
CCOC(OCC)c1ncccc1Oc1nc(OC)cc(OC)n1 [Compound No. 3, 3-(4,6-dimethoxy-2-pyrimidinyloxy)-2-pyridinecarboxaldehyde diethylacetal]	0%	0 (91-100 (No damages))	5 (0-5 (Death))	5 (0-5 (Death))	5 (0-5 (Death))	4 (6-10 (Severe damages))	5 (0-5 (Death))	4 (6-10 (Severe damages))	5 (0-5 (Death))	5 (0-5 (Death))	5 (0-5 (Death))	4 (6-10 (Severe damages))	0 (91-100 (No damages))	0 (91-100 (No damages))	0 (91-100 (No damages))	0 (91-100 (No damages))
COc1cc(OC)nc(Oc2cccnc2C=O)n1 [Compound No. 1, 4,6-dimethoxy-2-(2-formyl-3-pyridyloxy)pyrimidine]	3%	1 (71-90 (Slight damages))	5 (0-5 (Death))	4 (6-10 (Severe damages))	5 (0-5 (Death))	3 (11-40 (Medium damages))	4 (6-10 (Severe damages))	2 (41-70 (Small damages))	3 (11-40 (Medium damages))	3 (11-40 (Medium damages))	2 (41-70 (Small damages))	3 (11-40 (Medium damages))	1 (71-90 (Slight damages))	0 (91-100 (No damages))	0 (91-100 (No damages))	0 (91-100 (No damages))
CCOC(=O)c1ncccc1Oc1nc(OC)cc(OC)n1 [A, reference compound]	52%	5 (0-5 (Death))	4 (6-10 (Severe damages))	4 (6-10 (Severe damages))	5 (0-5 (Death))	5 (0-5 (Death))	5 (0-5 (Death))	4 (6-10 (Severe damages))	4 (6-10 (Severe damages))	5 (0-5 (Death))	4 (6-10 (Severe damages))	3 (11-40 (Medium damages))	5 (0-5 (Death))	5 (0-5 (Death))	5 (0-5 (Death))	5 (0-5 (Death))

Second part, led by results:

Inhibition rate (%) Pea [2]	Structure (SMILES)	Crop injury Rice (Oryza sativa) (Rice (Oryza sativa) [1])	Herbicidal effects Bulrush (Scirpus juncoides) [3]	Herbicidal effects Arrowhead sp. (Sagittaria pygmaea) [4]	Herbicidal effects Barnyardgrass (Echinochloa crus-galli) [5]	Herbicidal effects Foxtail (Setaria viridis) [6]	Herbicidal effects Johnsongrass (Johnsongrass)	Herbicidal effects Crabgrass (Digitaria adsendens) [7]	Herbicidal effects Redroot Pigweed (Redroot Pigweed)	Herbicidal effects Foxtail meadow (Foxtail meadow)	Herbicidal effects Common lambquarters (Common lambsquarters)	Herbicidal effects Barnyardgrass (Echinochloa crus-galli) [8]	Crop injury Rice (Oryza sativa) (Rice (Oryza sativa) [9])	Crop injury Soybean (Glycine max) (Soybean (Glycine max))	Crop injury Cotton (Gossypium indicum) [10]	Crop injury Corn (Zea maize) (Corn (Zea maize))
0%	COc1cc(OC)nc(Oc2cccnc2C(OC)OC(C)C)n1 (stereo not drawn) [Compound No. 5, 3-(4.6-dimethoxy-2-pyrimidinyloxy)-2-pyridinecarboxaldehyde isopropylmethylacetal]	0 (91-100 (No damages))	5 (0-5 (Death))	5 (0-5 (Death))	5 (0-5 (Death))	5 (0-5 (Death))	5 (0-5 (Death))	4 (6-10 (Severe damages))	5 (0-5 (Death))	5 (0-5 (Death))	5 (0-5 (Death))	4 (6-10 (Severe damages))	0 (91-100 (No damages))	0 (91-100 (No damages))	0 (91-100 (No damages))	0 (91-100 (No damages))
0%	COc1cc(OC)nc(Oc2cccnc2C2OCC(C)O2)n1 (stereo not drawn) [Compound No. 7]	0 (91-100 (No damages))	4 (6-10 (Severe damages))	4 (6-10 (Severe damages))	5 (0-5 (Death))	5 (0-5 (Death))	5 (0-5 (Death))	4 (6-10 (Severe damages))	4 (6-10 (Severe damages))	4 (6-10 (Severe damages))	4 (6-10 (Severe damages))	5 (0-5 (Death))	0 (91-100 (No damages))	0 (91-100 (No damages))	0 (91-100 (No damages))	0 (91-100 (No damages))

Source: US5129937A, “Pyridyloxypyrimidine derivatives, preparation process thereof, and herbicidal compositions containing the same as active ingredients” (Mitsui Toatsu Chemicals Incorporated, priority 1989, dated 1992)
